Structures can show the parent of a compound that is named as a salt.
For FC(F)(F)c1ccc2nc(-c3coc(Cc4c(Cl)cccc4Cl)n3)[nH]c2c1 [Example 21, 2-[(2,6-Dichlorophenyl)methyl]-4-[6-(trifluoromethyl)benzimidazol-2-yl]-1,3-oxazole], the melting point was 201 to 202 °C.
Cc1cccc(C)c1Nc1nc(C(=O)Nc2ccc(C(F)(F)F)cc2)cs1 [Example 3, {2-[(2,6-Dimethylphenyl)amino](1,3-thiazol-4-yl) }-N-[4-(trifluoromethyl)-phenyl]carboxamide] gave a melting point of 216 to 218 °C.
For CC(C)c1ccc(NC(=O)c2cnc(Cc3c(Cl)cccc3Cl)s2)cc1 [Example 9, {2-[(2,6-Dichlorophenyl)methyl](1,3-thiazol-5-yl)}-N-[4-(methylethyl)phenyl]-carboxamide], the melting point was 169 to 175 °C.
Compound FC(F)(F)c1ccc2[nH]c(-c3csc(Nc4ncccc4Cl)n3)nc2c1 [Example 6, (3-Chloro(2-pyridyl)){4-[5-(trifluoromethyl)benzimidazol-2-yl](1,3-thiazol-2-yl)}amine] has a melting point of 207 to 208 °C.
FC(F)(F)c1ccc2nc(-c3csc(Cc4c(Cl)cccc4Cl)n3)[nH]c2c1 [Example 8, 2-[(2,6-Dichlorophenyl)methyl]-4-[6-(trifluoromethyl)benzimidazol-2-yl]-1,3-thiazole] showed a melting point of 187 to 189 °C.
For O=C(Nc1ccc(Br)cc1)c1csc(Cc2ccccc2Cl)n1 [Example 33], the melting point was 109.4 to 110.6 °C.
O=C(Nc1ccc(Br)cc1)c1coc(Cc2c(Cl)cccc2Cl)n1 [Example 78] gave a melting point of 164 to 165 °C.
With O=C(Nc1ccc(C(F)(F)F)nc1)c1csc(Cc2ccccc2Cl)n1 [Example 1, {2-[(2-Chlorophenyl)methyl](1,3-thiazol-4-yl)}-N-[6-(trifluoromethyl)(3-pyridyl)]carboxamide] the melting point was 99 to 101 °C.
For O=C(Nc1ccc(Br)cc1)c1csc(Nc2c(Cl)cccc2C(F)(F)F)n1 [Example 69], the melting point was 262 to 264 °C.
O=C(Nc1ccc(Br)cc1)c1csc(Nc2ccccc2F)n1 [Example 55] showed a melting point of 198.4 to 199.7 °C.
Work on O=C(Nc1ccc(C(O)(C(F)(F)F)C(F)(F)F)cc1)c1csc(Cc2c(Cl)cccc2Cl)n1 [Example 43] yielded a melting point of 197 to 197.8 °C.
Compound CC(C)c1ccc(NC(=O)c2csc(Nc3ccccc3C(F)(F)F)n2)cc1 [Example 67] has a melting point of 96 to 100 °C.
Clc1cccc(Cl)c1Nc1nc(-c2nc3cc(Br)ccc3[nH]2)cs1 [Example 74] showed a melting point of 267 to 268 °C.
For O=C(Nc1ccc(C(F)(F)F)nc1)c1csc(Cc2c(Cl)cccc2Cl)n1 [Example 24], the melting point was 139.1 to 147.1 °C.
For O=C(Nc1ccc(C(O)(C(F)(F)F)C(F)(F)F)cc1)c1csc(Nc2ccccc2F)n1 [Example 54], the melting point was 158 to 160 °C.
For O=C(Nc1ccc(F)c(F)c1)c1csc(Cc2c(Cl)cccc2Cl)n1 [Example 17, {2-[(2,6-Dichlorophenyl)methyl](1,3-thiazol-4-yl)}-N-(3,4-difluorophenyl)-carboxamide], the melting point was 113 to 116 °C.
In the case of FC(F)(F)c1ccc2[nH]c(-c3csc(Nc4ccccc4C(F)(F)F)n3)nc2c1 [Example 72], the melting point was 211 to 212 °C.
For Cc1cccc(C)c1Nc1nc(C(=O)Nc2ccc(Br)cc2)cs1 [Example 65], the melting point was 208 to 209 °C.
For CN(C)c1ccc(NC(=O)c2csc(Cc3c(Cl)cccc3Cl)n2)cc1 [Example 50], the melting point was 172 to 174 °C.
Clc1cc2nc(-c3csc(Cc4c(Cl)cccc4Cl)n3)[nH]c2cc1Cl [Example 18, 4-(5,6-Dichlorobenzimidazol-2-yl)-2-[(2,6-dichlorophenyl)methyl]-1,3-thiazole] gave a melting point of 245 to 247 °C.
O=C(Nc1ccc(C(F)(F)F)cc1)c1csc(Nc2c(Cl)cccc2Cl)n1 [Example 63, {2-[(2,6-dichlorophenyl)amino](1,3-thiazol-4-yl)}-N-[4-(trifluoromethyl)phenyl]-carboxamide] showed a melting point of 199 to 200 °C.
O=C(Nc1ccc(Br)cc1)c1csc(Nc2ncccc2Cl)n1 [Example 76] showed a melting point of 226 to 258 °C.
O=C(Nc1ccc(C(F)(F)F)cc1)c1csc(Nc2ccccc2Cl)n1 [Example 61] showed a melting point of 192.5 to 193.1 °C.
Work on O=C(Nc1ccc(C(F)(F)F)cc1)c1csc(Cc2ccccc2Cl)n1 [Example 26] yielded a melting point of 85.5 to 94 °C.
In the case of CC(C)c1ccc(NC(=O)c2csc(Nc3c(Cl)cccc3C(F)(F)F)n2)cc1 [Example 70], the melting point was 216 to 218 °C.
O=C(Nc1ccc(C(F)(F)F)cc1)c1csc(Nc2cccnc2Cl)n1 [Example 51] showed a melting point of 232.5 to 234.3 °C.
In the case of O=C(Nc1ccc(Br)cc1)c1csc(Nc2ccccc2C(F)(F)F)n1 [Example 68], the melting point was 151 to 153 °C.
Compound COc1ccc(NC(=O)c2csc(Cc3c(Cl)cccc3Cl)n2)cn1 [Example 23] has a melting point of 137.7 to 138.8 °C.
Work on O=C(Nc1ccc(Br)cc1)c1csc(Cc2ccccc2F)n1 [Example 32] yielded a melting point of 100.8 to 101 °C.
Compound O=C(Nc1ccc(C(F)(F)F)cc1)c1csc(Nc2ccccc2C(F)(F)F)n1 [Example 66] has a melting point of 128 to 130 °C.
Work on O=C(Nc1ccc(C(F)(F)F)cc1)c1cnc(Cc2c(Cl)cccc2Cl)s1 [Example 10, {2-[(2,6-Dichlorophenyl)methyl](1,3-thiazol-5-yl)}-N-[4-(trifluoromethyl)-phenyl]carboxamide] yielded a melting point of 163 to 164 °C.
With O=C(Nc1ccc(C(F)(F)F)cc1)c1csc(Nc2c(Cl)cncc2Cl)n1 [Example 2, {2-[(3,5-Dichloro(4-pyridyl))amino](1,3-thiazol-4-yl)}-N-[4-(trifluoromethyl)-phenyl]carboxamide] the melting point was 195 to 197 °C.
FC(F)(F)c1ccc2nc(-c3csc(Nc4c(Cl)cccc4Cl)n3)[nH]c2c1 [Example 15, (2,6-Dichloro-phenyl)-[4-(6-trifluoromethyl-1H-benzoimidazol-2-yl)-thiazol-2-yl]-amine] gave a melting point of 242 to 243 °C.
In the case of CC(=O)c1ccc(NC(=O)c2csc(Cc3c(Cl)cccc3Cl)n2)cc1 [Example 22], the melting point was 98.8 to 106.9 °C.
O=C(Nc1ccc(C(F)(F)F)cc1)c1nc(Nc2c(Cl)cccc2Cl)sc1Br [Example 14, {2-[(2,6-Dichlorophenyl)amino]-5-bromo(1,3-thiazol-4-yl)}-N-[4-(trifluoromethyl)phenyl]carboxamide] showed a melting point of 151 to 162 °C.
Cc1cccc(C)c1Nc1nc(-c2nc3cc(C(F)(F)F)ccc3[nH]2)cs1 [Example 4, (2,6-Dimethylphenyl){4-[5-(trifluoromethyl)benzimidazol-2-yl](1,3-thiazol-2-yl)}amine] gave a melting point of 250 to 251 °C.
With O=C(Nc1ccc(C(F)(F)F)nc1)c1csc(Cc2c(F)cccc2Cl)n1 [Example 35] the melting point was 123.4 to 125.1 °C.
Compound CC(C)c1ccc(NC(=O)c2csc(Nc3ccccc3F)n2)cc1 [Example 58] has a melting point of 136.5 to 180.1 °C.
FC(F)(F)c1ccc2nc(-c3c[nH]c(Cc4c(Cl)cccc4Cl)n3)[nH]c2c1 [Example 20, 2-{2-[(2,6-Dichlorophenyl)methyl]imidazol-4-yl}-6-(trifluoromethyl)-benzimidazole] showed a melting point of 281 to 282 °C.
Work on O=C(Nc1ccc(C(F)(F)F)cc1)c1csc(Nc2c(Cl)cccc2C(F)(F)F)n1 [Example 71] yielded a melting point of 243 to 244 °C.
In the case of CC(C)c1ccc(NC(=O)c2csc(Cc3ccccc3Cl)n2)cc1 [Example 25], the melting point was 85.4 to 92.7 °C.
Work on O=C(Nc1ccc(Br)cc1)c1csc(Nc2ccccc2Cl)n1 [Example 60] yielded a melting point of 220.5 to 221.3 °C.
For O=C(Nc1ccc(Br)cc1)c1cnc(Cc2c(Cl)cccc2Cl)[nH]1 (as salt: hydrochloride) [Example 13, {2-[(2,6-Dichlorophenyl)methyl]imidazol-5-yl}-N-(4-bromophenyl)carboxamide], the melting point was 253 to 254 °C.
For O=C(Nc1ccc(Br)cc1)c1csc(Nc2c(Cl)cccc2Cl)n1 [Example 56], the melting point was 125.9 to 126.9 °C.
Work on COc1ccccc1Cc1nc(C(=O)Nc2ccc(Br)cc2)cs1 [Example 36] yielded a melting point of 138 to 138.4 °C.
With CC(C)(C)c1ccc(NC(=O)c2csc(Cc3c(Cl)cccc3Cl)n2)cc1 [Example 49] the melting point was 139 to 141 °C.
With FC(F)(F)c1ccc2[nH]c(-c3csc(Nc4c(Cl)cccc4C(F)(F)F)n3)nc2c1 [Example 73] the melting point was 188 to 210 °C.
In the case of Cc1ccccc1Cc1nc(C(=O)Nc2ccc(C(F)(F)F)nc2)cs1 [Example 39], the melting point was 140.2 to 141.3 °C.
In the case of O=C(Nc1ccc(C(F)(F)F)nc1)c1csc(Cc2ccccc2F)n1 [Example 31], the melting point was 104.8 to 107.7 °C.
With O=C(Nc1ccc(C(F)(F)C(F)(F)F)cc1)c1csc(Cc2c(Cl)cccc2Cl)n1 [Example 47] the melting point was 95 to 96.4 °C.
Compound CC(C)c1ccc(NC(=O)c2cnc(Cc3c(Cl)cccc3Cl)[nH]2)cc1 (as salt: hydrochloride) [Example 12, {2-[(2,6-Dichlorophenyl)methyl]imidazol-5-yl}-N-[4-(methylethyl)phenyl]-carboxamide] has a melting point of 210 to 212 °C.
Compound O=C(Nc1ccc(Br)cc1)c1csc(Nc2cccnc2Cl)n1 [Example 52] has a melting point of 214.7 to 216.2 °C.
Work on O=C(Nc1ccc(Br)cc1)c1csc(Cc2c(F)cccc2Cl)n1 [Example 34] yielded a melting point of 111.8 to 112.5 °C.
O=C(Nc1ccc(Br)cc1)c1csc(Nc2c(Cl)cncc2Cl)n1 [Example 53] showed a melting point of 194.9 to 196.6 °C.
For Cc1ccccc1Cc1nc(C(=O)Nc2ccc(Br)cc2)cs1 [Example 37], the melting point was 121.9 to 123.4 °C.
Work on O=C(Nc1ccc(C(F)(F)F)cc1)c1cnc(Cc2c(Cl)cccc2Cl)[nH]1 [Example 11, {2-[(2,6-Dichlorophenyl)methyl]imidazol-5-yl}-N-[4-(trifluoromethyl)-phenyl]carboxamide] yielded a melting point of 253 to 255 °C.
With Cc1cccc(C)c1Nc1nc(C(=O)Nc2ccc(C(C)C)cc2)cs1 [Example 64] the melting point was 128 to 133 °C.
In the case of O=C(Nc1ccc(C(F)(F)F)cc1)c1csc(Nc2ncccc2Cl)n1 [Example 75], the melting point was 186 to 187 °C.
In the case of O=C(Nc1ccc(Br)cc1)c1csc(Cc2c(Cl)cccc2Cl)n1 [Example 40], the melting point was 126.6 to 132 °C.
COc1ccccc1Cc1nc(C(=O)Nc2ccc(C(F)(F)F)cc2)cs1 [Example 38] showed a melting point of 107.2 to 108.2 °C.
